These results are taken from patent US10414769B2, “5,8-dimethyl-9-phenyl-5,8-dihydro-6H-pyrazolo[3,4-h]quinazolin-2-yl)-(1H-pyrazol-3-yl)-amines as IGF-1R/IR inhibitors” (Boehringer Ingelheim International GmbH, priority 2015, dated 2019).

One may read the inhibition as how much of the control response was suppressed.

In assay [1] the target is T1, ROCK2 (Homo sapiens, UniProt O75116).
T1 construct: purchased Life Technologies PV 3759
The assay can be described thus: Z'-LYTE kinase selectivity assay ROCK2. Format: biochemical. From the text:
(§1) In order to compare the kinase selectivity of compounds (I) according to the invention with known prior art compounds the commercially provided SelectScreen® Kinase Profiling Service (Z′-LYTE®) was used (Life Technologies GmbH, Darmstadt, Germany) to investigate the ability of the compounds to inhibit a number of different, representatively selected human kinases. Further details regarding this service are available on the Life Technologies website at
(§2) The Z′-LYTE® biochemical assay employs a fluorescence-based, coupled-enzyme format and is based on the differential sensitivity of phosphorylated and non-phosphorylated peptides to proteolytic cleavage. The peptide substrate is labeled with two fluorophores—one at each end—that make up a FRET pair.
(§3) In the primary reaction, the kinase transfers the gamma-phosphate of ATP to a single tyrosine, serine or threonine residue in a synthetic FRET-peptide. In the secondary reaction, a site-specific protease recognizes and cleaves non-phosphorylated FRET-peptides. Phosphorylation of FRET-peptides suppresses cleavage by the Development Reagent. Cleavage disrupts FRET between the donor (i.e., coumarin) and acceptor (i.e., fluorescein) fluorophores on the FRET-peptide, whereas uncleaved, phosphorylated FRET-peptides maintain FRET. A ratiometric method, which calculates the ratio (the Emission Ratio) of donor emission to acceptor emission after excitation of the donor fluorophore at 400 nm, is used to quantitate reaction progress, as shown in the equation below.
(§4) The Test Compounds are screened at 1 μM.
The 2×ROCK2 (# PV 3759)/Ser/Thr 13 (Z′-LYTE® Kinase Assay Kit—Ser/Thr 13 Peptide, # PV 3793) mixture is prepared in 50 mM HEPES pH 7.5, 0.01% BRIJ-35, 10 mM MgCl2. 1 mM EGTA. The final 10 μL Kinase Reaction consists of 0.62-4.13 ng ROCK2 and 2 μM Ser/Thr 13 in 50 mM HEPES pH 7.5, 0.01% BRIJ-35, 10 mM MgCl2, 1 mM EGTA. After the 1 hour Kinase Reaction incubation, 5 μL of a 1:1024 dilution of Development Reagent A is added.

The target in assay [2] is standard panel of 30 kinases. Put plainly: Kinase selectivity panel (SelectScreen Z'-LYTE), number of kinases inhibited. Type of assay: biochemical, human. The note with it: count out of 30 kinases.
Excerpt: Prior art document WO 2012/010704, which is completely silent about the pharmacokinetic profile of its compounds, discloses compounds with similar substituents in the 2-position, e.g. compounds I-166, I-167 and I-175, which share the previously undefined, desirable pharmacokinetic profile with compounds (I) according to the invention.
as §1, §2, §3, §4

The target of assay [3] is T2, MAP2K1 (MEK1) (Homo sapiens, UniProt Q02750).
T2 construct: purchased Life Technologies PV 3303
T2 sequence (Q02750 whole entry): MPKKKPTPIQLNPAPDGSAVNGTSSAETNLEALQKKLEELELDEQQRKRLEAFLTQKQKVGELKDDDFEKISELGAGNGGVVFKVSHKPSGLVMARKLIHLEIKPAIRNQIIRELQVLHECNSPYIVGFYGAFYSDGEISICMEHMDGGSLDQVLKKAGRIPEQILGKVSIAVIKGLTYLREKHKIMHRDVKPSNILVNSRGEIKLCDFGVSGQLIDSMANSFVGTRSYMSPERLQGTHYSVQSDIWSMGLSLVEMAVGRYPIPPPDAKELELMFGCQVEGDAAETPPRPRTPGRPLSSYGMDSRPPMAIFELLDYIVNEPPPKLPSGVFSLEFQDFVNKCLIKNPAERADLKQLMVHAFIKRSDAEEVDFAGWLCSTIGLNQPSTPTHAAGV
Put plainly: Z'-LYTE kinase selectivity assay MAP2K1. Type of assay: biochemical.
Excerpt: as §1, §2, §3, §4
(§5) After the 1 hour Kinase Reaction incubation, 5 μL of a 1:1024 dilution of Development Reagent A is added.

The target in assay [4] is T3, CSNK2A1 (CK2 alpha 1) (Homo sapiens, UniProt P68400).
T3 construct: purchased Life Technologies PV 3248
T3 sequence (P68400 whole entry): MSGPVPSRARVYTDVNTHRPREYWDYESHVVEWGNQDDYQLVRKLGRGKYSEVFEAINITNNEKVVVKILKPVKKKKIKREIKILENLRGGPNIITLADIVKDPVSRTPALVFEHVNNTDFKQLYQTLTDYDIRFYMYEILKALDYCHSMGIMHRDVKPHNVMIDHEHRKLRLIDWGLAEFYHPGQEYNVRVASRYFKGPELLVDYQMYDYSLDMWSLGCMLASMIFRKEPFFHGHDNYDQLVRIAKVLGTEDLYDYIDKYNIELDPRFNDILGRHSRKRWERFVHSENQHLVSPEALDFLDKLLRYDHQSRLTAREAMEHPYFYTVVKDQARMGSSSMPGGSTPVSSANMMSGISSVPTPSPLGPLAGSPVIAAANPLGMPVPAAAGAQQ
The assay can be described thus: Z'-LYTE kinase selectivity assay CSNK2A1. Format: biochemical.
Excerpt: as §1, §2, §3, §4
The 2×CSNK2A1 (CK2 alpha 1) (# PV 3248)/Ser/Thr 11 (Z′-LYTE® Kinase Assay Kit—Ser/Thr 11 Peptide, # PV 3670) mixture is prepared in 50 mM HEPES pH 7.5, 0.01% BRIJ-35, 10 mM MgCl2, 1 mM EGTA. The final 10 μL Kinase Reaction consists of 0.68-25.7 ng CSNK2A1 (CK2 alpha 1) and 2 μM Ser/Thr 11 in 50 mM HEPES pH 7.5, 0.01% BRIJ-35, 10 mM MgCl2, 1 mM EGTA. After the 1 hour Kinase Reaction incubation, 5 μL of a 1:16 dilution of Development Reagent B is added.

Assay [5] addresses T4, MAP3K8 (COT) (Homo sapiens, UniProt P41279).
T4 construct: purchased Life Technologies PV 4313
Put plainly: Z'-LYTE kinase selectivity assay MAP3K8. Type of assay: biochemical.
Excerpt: as §1, §2, §3, §4, §5

In assay [6] the target is T5, FGFR1 (Homo sapiens, UniProt P11362).
T5 construct: purchased Life Technologies PV 3146
T5 sequence (P11362 22-822): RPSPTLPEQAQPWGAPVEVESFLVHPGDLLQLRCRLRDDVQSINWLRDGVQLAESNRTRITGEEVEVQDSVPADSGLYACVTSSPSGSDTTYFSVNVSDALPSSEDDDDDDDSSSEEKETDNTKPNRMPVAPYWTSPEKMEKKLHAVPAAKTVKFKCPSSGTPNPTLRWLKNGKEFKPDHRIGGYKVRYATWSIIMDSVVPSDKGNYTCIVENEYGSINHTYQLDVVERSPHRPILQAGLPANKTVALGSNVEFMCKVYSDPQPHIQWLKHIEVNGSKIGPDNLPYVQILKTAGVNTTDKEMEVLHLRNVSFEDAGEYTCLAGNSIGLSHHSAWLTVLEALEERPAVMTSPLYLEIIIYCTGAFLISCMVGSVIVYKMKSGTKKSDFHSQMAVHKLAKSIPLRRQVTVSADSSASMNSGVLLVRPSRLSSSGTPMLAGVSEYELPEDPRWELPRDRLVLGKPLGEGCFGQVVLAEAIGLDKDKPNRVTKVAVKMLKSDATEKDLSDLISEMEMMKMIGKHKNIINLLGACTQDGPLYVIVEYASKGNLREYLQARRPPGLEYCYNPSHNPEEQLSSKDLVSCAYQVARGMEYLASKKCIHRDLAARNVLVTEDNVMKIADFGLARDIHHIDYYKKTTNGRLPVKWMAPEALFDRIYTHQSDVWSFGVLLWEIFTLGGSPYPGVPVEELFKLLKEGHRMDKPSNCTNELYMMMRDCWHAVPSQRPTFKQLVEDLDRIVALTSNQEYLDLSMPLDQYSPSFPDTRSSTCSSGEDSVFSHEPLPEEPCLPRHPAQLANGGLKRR
The assay can be described thus: Z'-LYTE kinase selectivity assay FGFR1. Type of assay: biochemical.
Excerpt: as §1, §2, §3, §4
The 2×FGFR1 (# PV 3146)/Tyr 04 (Z′-LYTE® Kinase Assay Kit—Tyrosine 4 Peptide, # PV 3193) mixture is prepared in 50 mM HEPES pH 7.5, 0.01% BRIJ-35, 10 mM MgCl2, 4 mM MnCl2, 1 mM EGTA, 2 mM DTT. The final 10 μL Kinase Reaction consists of 0.44-2.45 ng FGFR1 and 2 μM Tyr 04 in 50 mM HEPES pH 7.5, 0.01% BRIJ-35, 10 mM MgCl2, 2 mM MnCl2, 1 mM EGTA, 1 mM DTT. After the 1 hour Kinase Reaction incubation, 5 μL of a 1:64 dilution of Development Reagent B is added.

Assay [7] deals with T6, CHEK1 (CHK1) (Homo sapiens, UniProt O14757).
T6 construct: purchased Life Technologies P 3040
T6 sequence (O14757 1-476): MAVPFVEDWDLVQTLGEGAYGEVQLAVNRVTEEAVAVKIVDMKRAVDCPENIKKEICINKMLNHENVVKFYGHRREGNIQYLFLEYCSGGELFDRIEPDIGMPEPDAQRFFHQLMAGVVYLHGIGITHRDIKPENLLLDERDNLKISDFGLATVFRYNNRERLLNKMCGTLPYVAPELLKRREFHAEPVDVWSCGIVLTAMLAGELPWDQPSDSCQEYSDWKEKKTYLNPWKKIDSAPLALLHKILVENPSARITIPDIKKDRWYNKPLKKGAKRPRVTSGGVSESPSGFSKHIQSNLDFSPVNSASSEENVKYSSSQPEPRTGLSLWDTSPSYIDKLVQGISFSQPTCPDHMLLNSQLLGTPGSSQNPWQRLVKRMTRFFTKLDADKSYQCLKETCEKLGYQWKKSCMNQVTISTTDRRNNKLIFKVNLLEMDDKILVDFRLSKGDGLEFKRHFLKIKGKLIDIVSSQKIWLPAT
Put plainly: Z'-LYTE kinase selectivity assay CHEK1. Format: biochemical.
Excerpt: as §1, §2, §3, §4
The 2×CHEK1 (CHK1) (# P 3040)/Ser/Thr 19 (Z′-LYTE® Kinase Assay Kit—Ser/Thr 19 Peptide, # PV 4529) mixture is prepared in 50 mM HEPES pH 7.5, 0.01% BRIJ-35, 10 mM MgCl2, 1 mM EGTA. The final 10 μL Kinase Reaction consists of 2.04-35 ng CHEK1 (CHK1) and 2 μM Ser/Thr 19 in 50 mM HEPES pH 7.5, 0.01% BRIJ-35, 10 mM MgCl2. 1 mM EGTA. After the 1 hour Kinase Reaction incubation, 5 μL of a 1:256 dilution of Development Reagent A is added.

T1 sequence (O75116 whole entry): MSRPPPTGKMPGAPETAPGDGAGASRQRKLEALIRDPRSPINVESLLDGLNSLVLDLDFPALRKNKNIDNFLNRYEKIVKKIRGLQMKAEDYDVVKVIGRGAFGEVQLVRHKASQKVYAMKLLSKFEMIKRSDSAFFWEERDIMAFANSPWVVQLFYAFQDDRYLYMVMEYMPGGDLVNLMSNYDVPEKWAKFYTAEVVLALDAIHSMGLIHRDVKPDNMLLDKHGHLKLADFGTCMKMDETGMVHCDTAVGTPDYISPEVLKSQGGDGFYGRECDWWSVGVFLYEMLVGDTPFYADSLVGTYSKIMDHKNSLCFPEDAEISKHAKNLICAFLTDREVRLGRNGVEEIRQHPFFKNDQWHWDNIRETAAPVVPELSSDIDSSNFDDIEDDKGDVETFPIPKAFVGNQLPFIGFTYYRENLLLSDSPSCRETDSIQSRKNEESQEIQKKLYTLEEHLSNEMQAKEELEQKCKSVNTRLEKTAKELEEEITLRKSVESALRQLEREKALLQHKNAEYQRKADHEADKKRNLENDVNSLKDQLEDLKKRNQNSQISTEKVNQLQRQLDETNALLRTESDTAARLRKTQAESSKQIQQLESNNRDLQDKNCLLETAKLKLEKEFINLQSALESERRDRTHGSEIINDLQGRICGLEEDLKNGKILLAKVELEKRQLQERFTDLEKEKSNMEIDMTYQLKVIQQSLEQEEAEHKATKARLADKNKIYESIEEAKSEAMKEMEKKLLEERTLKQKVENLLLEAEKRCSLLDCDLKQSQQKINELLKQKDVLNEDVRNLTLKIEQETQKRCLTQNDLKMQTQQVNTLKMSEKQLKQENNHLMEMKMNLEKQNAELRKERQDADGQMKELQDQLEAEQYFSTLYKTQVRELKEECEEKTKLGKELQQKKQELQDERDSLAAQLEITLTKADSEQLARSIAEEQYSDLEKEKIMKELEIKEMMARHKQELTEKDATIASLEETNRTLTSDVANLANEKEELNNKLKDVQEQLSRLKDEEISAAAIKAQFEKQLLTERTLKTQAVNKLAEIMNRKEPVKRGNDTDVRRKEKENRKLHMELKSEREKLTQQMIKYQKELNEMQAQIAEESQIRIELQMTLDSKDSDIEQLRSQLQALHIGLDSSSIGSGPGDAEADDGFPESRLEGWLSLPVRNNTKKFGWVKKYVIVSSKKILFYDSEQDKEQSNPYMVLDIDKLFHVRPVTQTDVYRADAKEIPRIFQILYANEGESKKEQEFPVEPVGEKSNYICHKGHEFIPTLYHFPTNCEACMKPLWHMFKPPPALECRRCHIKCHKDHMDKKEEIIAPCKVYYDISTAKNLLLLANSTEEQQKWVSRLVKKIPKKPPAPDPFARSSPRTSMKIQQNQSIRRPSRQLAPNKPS
T4 sequence (P41279 whole entry): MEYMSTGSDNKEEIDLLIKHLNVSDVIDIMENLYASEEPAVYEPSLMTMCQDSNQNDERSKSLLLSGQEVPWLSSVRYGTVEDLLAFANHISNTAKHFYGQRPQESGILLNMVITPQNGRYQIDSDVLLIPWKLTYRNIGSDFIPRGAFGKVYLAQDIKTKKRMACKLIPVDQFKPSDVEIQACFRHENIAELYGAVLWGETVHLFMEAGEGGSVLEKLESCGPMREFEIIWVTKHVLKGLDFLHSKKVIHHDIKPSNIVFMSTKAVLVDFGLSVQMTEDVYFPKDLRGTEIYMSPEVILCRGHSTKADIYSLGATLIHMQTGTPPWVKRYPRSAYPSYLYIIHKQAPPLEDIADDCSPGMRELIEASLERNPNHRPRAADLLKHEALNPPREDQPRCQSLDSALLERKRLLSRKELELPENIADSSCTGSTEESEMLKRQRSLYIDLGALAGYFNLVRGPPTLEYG

Take `C[C@@H]1Cc2nn(C)c(-c3ccccc3)c2-c2nc(Nc3ccn(CCN4CCOCC4)n3)ncc21` [Compound I-2]: the inhibition at 1 µM is 6% in assay [1]; 58% in assay [3]; 10% in assay [4]; 57% in assay [5]; 40% in assay [6]; 23% in assay [7]. For the same compound, the “# kinases inhibited >50% @ 1 μM” value in assay [2] is 7/30.
With `CC(O)CN1CCN(CCn2ccc(Nc3ncc4c(n3)-c3c(nn(C)c3-c3ccccc3)C[C@H]4C)n2)CC1` (stereo partly shown) [Compound I-7], the inhibition at 1 µM in assay [1] was 9%; in assay [3] it was 40%; in assay [4], 8%; in assay [5], 42%; in assay [6], 34%; in assay [7], 38%. The “# kinases inhibited >50% @ 1 μM” value in assay [2] is recorded as 6/30.
With `COCCN1CCN(CCn2ccc(Nc3ncc4c(n3)-c3c(nn(C)c3-c3ccccc3)C[C@H]4C)n2)CC1` [Compound I-11], the inhibition at 1 µM came to 9% in assay [1]; 39% in assay [3]; 2% in assay [4]; 22% in assay [5]; 28% in assay [6]; 25% in assay [7]. Besides, the “# kinases inhibited >50% @ 1 μM” value in assay [2] is 4/30.
For the compound `C[C@@H]1Cc2nn(C)c(-c3ccccc3)c2-c2nc(Nc3ccn(CCN4CCN(CC5CCCO5)CC4)n3)ncc21` (stereo partly shown) [Compound I-9], the inhibition at 1 µM worked out at 3% in assay [1]; 36% in assay [3]; 1% in assay [4]; 37% in assay [5]; 32% in assay [6]; 26% in assay [7]. Further, the “# kinases inhibited >50% @ 1 μM” value in assay [2] is recorded as 6/30.
In the case of `C[C@@H]1Cc2nn(C)c(-c3ccccc3)c2-c2nc(Nc3ccn(CCN4CCN(CC(=O)OC5CCOCC5)CC4)n3)ncc21` [Compound I-8], the inhibition at 1 µM in assay [1] was determined as 7%; in assay [3], 48%; in assay [4], 7%; in assay [5], 38%; in assay [6] it was 29%; in assay [7], 17%. Besides, the “# kinases inhibited >50% @ 1 μM” value in assay [2] is given as 3/30.
Turning to `C[C@@H]1Cc2nn(C)c(-c3ccccc3)c2-c2nc(Nc3ccn(CCN4CCN(C)CC4)n3)ncc21` [Compound I-1], the inhibition at 1 µM in assay [1] was 1%; in assay [3], 34%; in assay [4] it was 4%; in assay [5], 27%; in assay [6], 30%; in assay [7] it was 11%. For the same compound, the “# kinases inhibited >50% @ 1 μM” value in assay [2] is listed as 6/30.
`C[C@@H]1Cc2nn(C)c(-c3ccccc3)c2-c2nc(Nc3ccn(CCN4CCN(CC(C)(C)O)CC4)n3)ncc21` [Compound I-3]: the inhibition at 1 µM in assay [1] worked out at 7%; in assay [3], 50%; in assay [4], 3%; in assay [5], 45%; in assay [6], 34%; in assay [7] it was 31%. For the same compound, the “# kinases inhibited >50% @ 1 μM” value in assay [2] was 6/30.
